Measured values taken from publication PMC6222787, “Anti-Inflammatory Activities of Compounds Isolated from the Rhizome of Anemarrhena asphodeloides” (Molecules : A Journal of Synthetic Chemistry and Natural …, 2018).
Values joined by “and” are separate entries in the source; they are usually repeats but may differ in a detail not shown here. Equal values may be shown once. Read-outs that look alike come from different tables or passages of the source.

How the values were obtained:
[1] = system: scopolamine-induced cognition deficits; parameters: method as in PMID 27444169; details: mice; cited from earlier work
[2] = system: LPS-induced NO production in N9 microglial cells; experiment: LPS-induced NO production (Griess assay); assay type: cell-based, mouse; details: for Nitrite: control 4.60, LPS group 31.81 μM; for Nitrite / inhibition at 25 µM / inhibition at 50 µM / % Inhibition of NO Production: mean ± S.E.M.; for inhibition at 25 µM / inhibition at 50 µM: N9, 24 h; for % Inhibition of NO Production: 50 µM
Method: Figure 2 Inhibitory effects of TBIII (A) and t-HL (B) in LPS-stimulated N9 microglial cells. Cells were pretreated with different concentrations of TBIII and t-HL 1 h prior to the addition of LPS (100 ng/mL) and were further incubated for 24 h. NO production was determined by using the Griess reagent. IC50 values and curve fitting were determined using Graphpad Prism (GraphPad, Avenida, CA, USA).
Accumulation of nitrite, a metabolite of NO in the culture media, was measured by Griess assay as previously reported. Briefly, cells were stimulated with 100 ng/mL of LPS for 24 h in the presence of the test compounds (0–50 μM).

[3] = system: various kinds of tumor cells; parameters: method as in PMID 15971131, PMID 28548219, PMID 29393481, PMID 27897231; details: cited from earlier work
[4] = system: N9 microglial cells; experiment: MTT assay for cell viability
Method: (§6) The N9 microglial cell line was obtained from China Cell Line Bank. The cells were grown at 37 °C in IMDM supplemented with 10% heat-inactivated FBS under a humidified atmosphere of 5% CO2. In this experiment, cells were allowed to acclimate for 24 h before treatments.
(§7) Cell viability was evaluated by the MTT reduction assay [36]. Cells were seeded in 96-well plates at a density of 2 × 10^4 cells/well and allowed to grow for 24 h before treatments. Thereafter, 100 μL medium containing various concentrations (0–50 μM) of compounds were added and incubated for another 24 h. MTT was dissolved in DD water (5 mg/mL) and 10 μL were added to each well. After 4 h, the medium was removed and 100 μL DMSO were filled in each well. The optical density was measured at 490 nm on a Flexstation 3 (Molecular Devices, Silicon Valley, CA, USA).

[5] = MTT assay for cell viability; details: mouse, N9 microglial cells, % Cell Viability, 24 h, MTT, mean ± S.E.M.; for viability at 24 h, 25 µM: 25 μM compound; for viability at 24 h, 50 µM: 50 μM compound
Method: as §6, §7

[6] = system: mouse model of postpartum depression; details: cited from earlier work
[7] = system: NF-κB; experiment: LPS-induced activation of NF-κB (Western blot, nuclear p65); assay type: cell-based, mouse; details: pretreated 1 h, LPS 100 ng/mL
Method: (§1) Figure 6 Effect of TBIII and t-HL on LPS-induced activation of Akt (A,C) and NF-κB (B,D) in N9 cells. Cells were treated with different concentrations of TBIII and t-HL for 1 h prior to stimulation with LPS (100 ng/mL). Nuclear and cytoplasmic proteins were obtained and analyzed by western blot. PAR (10 μM) was used as a positive control. The data shown represent the mean ± S.E.M of three independent experiments. * p < 0.05, ** p < 0.01, *** p < 0.001 versus the LPS-treated group; ^# p < 0.05, ^## p < 0.01, ^### p < 0.001 versus the control group.
(§2) N9 cells were plated into 12-well plates (4 × 10^5 cells/well) and pretreated with different concentrations of TBIII and t-HL for 1 h, then stimulated by 100 ng/mL of LPS for 24 h. Nuclear and cytoplasmic proteins were obtained with nuclear and cytoplasmic protein extraction kit (Beyotime Biotechnology, Shanghai, China) according to the manufacturer′s protocol. Proteins were collected by SDS-PAGE Sample Loading Buffer (Yeasen, Shanghai, China) and heated at 99 °C for 10 min. Proteins in sample loading buffer were separated on 10% sodium dodecyl sulfate (SDS)-polyacrylamide gel electrophoresis (PAGE) and followed by transferring to nitrocellulose membranes (Whatman Protran, Dassel, Germany). […] The immunoreactive bands were quantified using the NIH Image J software (NIH, Bethesda, MD, USA).

[8] = system: N9 microglial cells
Method: as §6, §7

[9] = system: Akt; experiment: LPS-induced activation of Akt (Western blot); assay type: cell-based, mouse; details: pretreated 1 h, LPS 100 ng/mL
Method: as §1, §2

[10] = in vitro; details: mouse, % Cell Viability
Method: as §6, §7

[11] = system: IL-6; experiment: LPS-induced IL-6 production (ELISA); assay type: cell-based, mouse; details: pretreated 1 h, LPS 100 ng/mL 24 h
Method: (§3) Figure 5 Effects of TBIII (A) and t-HL (B) on LPS-induced production of pro-inflammatory cytokines in N9 microglial cells. Cells were pre-treated with TBIII and t-HL for 1 h and then stimulated with LPS (100 ng/mL) for 24 h. The protein levels of TNF-α and IL-6 determined by ELISA according to manufacturer′s instructions. PAR (10 μM) was used as a positive control. The data were obtained from three independent experiments and expressed as the means ± S.E.M. * p < 0.05, ** p < 0.01, *** p < 0.001 versus the LPS-treated group; ^## p < 0.01, ^### p < 0.001 versus the control group.
(§4) N9 cells were plated into 24-well plates (2 × 10^5 cells/well). After cells became adherent, they were pretreated with different concentrations of TBIII and t-HL for 1 h before stimulation with 100 ng/mL of LPS. The supernatants of cultured medium were collected and the production of TNF-α and IL-6 was measured after incubation for 24 h using an ELISA kit according to manufacturer′s instructions.

[12] = system: IL-6; experiment: LPS-induced IL-6 mRNA expression (real-time PCR); assay type: cell-based, mouse; details: pretreated 1 h, LPS 100 ng/mL 4 h, dose-dependent
Method: (§5) Figure 4 Effects of TBIII (A) and t-HL (B) on LPS-induced mRNA expression of pro-inflammatory cytokines in N9 microglial cells. Cells were treated with different concentrations of TBIII and t-HL for 1 h and then stimulated with LPS (100 ng/mL) for 4 h. TNF-α and IL-6 mRNA levels were determined by real-time PCR analysis. […] The data were obtained from three independent experiments and expressed as the means ± […] < 0.001 versus the LPS-treated group; ^### p < 0.001 versus the control group. Total RNA was extracted from cells using Trizol reagent (Invitrogen, Carlsbad, CA, USA). Reverse transcription of RNA was performed with the Reverse Transcription System […] kit (Promega, Madison, WI, USA) according to the manufacturer's protocol. The complementary DNA (cDNA) was subsequently subjected to Real-Time PCR to quantify the transcripts of TNF-α and IL-6 using SYBR® Green Real-time PCR Master Mix (TOYOBO, Osaka, Japan). […] The primers for the mouse housekeeping gene glyceraldehyde-3-phosphate dehydrogenase ([…] was performed according to the following conditions: 94 °C for 3 min, 40 cycles of denaturation at 94 °C for 30 s, annealing at 56 °C for 45 s, extension at 72 °C for 30 s, followed by a final extension at 72 °C for 10 min. The quantified fold changes in messenger RNA (mRNA) in each sample were normalized to GAPDH expression and calculated using the 2exp (-ΔΔCt) method.

[13] = system: TNF-α; experiment: LPS-induced TNF-α production (ELISA); assay type: cell-based, mouse; details: pretreated 1 h, LPS 100 ng/mL 24 h
Method: as §3, §4

[14] = system: iNOS; experiment: iNOS expression by Western blot in LPS-stimulated N9 cells; assay type: cell-based, mouse; details: pretreated 1 h, LPS 100 ng/mL 24 h, dose-dependent
Method: Figure 3 Effects of TBIII (A) and t-HL (B) on the expression of iNOS induced by LPS in N9 microglial cells. The iNOS protein levels were analyzed by Western blot. Cells were treated with different concentrations of TBIII and t-HL for 1 h and then stimulated with LPS (100 ng/mL) for 24 h. The iNOS signal was normalized to the β-actin signal. Parthenolide (PAR, 10 μM) was used as a positive control. The data were obtained from three independent experiments and expressed as the means ± S.E.M. * p < 0.05, ** p < 0.01, *** p < 0.001 versus the LPS-treated group; ^### p < 0.001 versus the control group.
as §2

[15] = system: TNF-α; experiment: LPS-induced TNF-α mRNA expression (real-time PCR); assay type: cell-based, mouse; details: pretreated 1 h, LPS 100 ng/mL 4 h, dose-dependent
Method: as §5

[16] = system: neuronal injury; parameters: method as in PMID 23287539; details: cited from earlier work
[17] = 25 μM compound, LPS 100 ng/mL, 24 h
[18] = 50 μM compound, LPS 100 ng/mL, 24 h
[19] = Mus musculus, 25 μM compound, LPS 100 ng/mL, 24 h, read-out: % Inhibition of NO Production
[20] = Mus musculus, 50 μM compound, LPS 100 ng/mL, 24 h, read-out: % Inhibition of NO Production

Row | SMILES | Nitrite [2, 17] [µM] | Nitrite [2, 18] [µM] | inhibition at 25 µM [2, 19] [%] | inhibition at 50 µM [2, 20] [%] | viability at 24 h, 25 µM [5] [%] | viability at 24 h, 50 µM [5] [%] | % Inhibition of NO Production [2, 18] | NF-κB signaling / p65 subunit into nuclei [7] | phosphorylation of Akt / PI3K/Akt signaling activation [9] | viability at 24 h, 25 µM [10] [%] | IL-6 production (protein) [11] | IL-6 mRNA expression [12] | TNF-α production (protein) [13] | iNOS protein expression [14] | TNF-α mRNA expression [15] | other results
1 | C[C@@H](CC[C@@]1(O)O[C@H]2C[C@H]3[C@@H]4CC[C@@H]5C[C@@H](O[C@@H]6O[C@H](CO)[C@H](O)[C@H](O)[C@H]6O[C@@H]6O[C@H](CO)[C@@H](O)[C@H](O)[C@H]6O)CC[C@]5(C)[C@H]4CC[C@]3(C)[C@H]2[C@@H]1C)CO[C@@H]1O[C@H](CO)[C@@H](O)[C@H](O)[C@H]1O [Timosaponin BII] |  |  |  |  |  |  |  |  |  |  |  |  |  |  |  | effect on scopolamine-induced cognition deficits [1]: ameliorate scopolamine-induced cognition deficits
2 | C[C@@H]1O[C@@H](O[C@H]2[C@H](OC(=O)[C@]34CCC(C)(C)C[C@H]3C3=CC[C@@H]5[C@@]6(C)C[C@H](O)[C@H](O[C@@H]7O[C@H](CO)[C@@H](O)[C@H](O)[C@H]7O)C(CO)(CO)[C@@H]6CC[C@@]5(C)[C@]3(C)C[C@H]4O)OC[C@H](O)[C@@H]2O)[C@H](O)[C@H](O)[C@H]1O[C@@H]1OC[C@@H](O)[C@H](O[C@@H]2OC[C@](O)(CO)[C@H]2O)[C@H]1O [Compound 14, Platycodin D] | 28.94 ± 0.40 | 4.29 ± 0.59 | 8.65 ± 2.24 | 86.5 ± 2.71 | 40.2 ± 9.18 | 17.9 ± 1.99 |  |  |  |  |  |  |  |  |  | cytotoxicity towards tumor cells [3]: significant cytotoxicity; cell viability reduced to ([4]; at 25 and 50 μM): ≤ 60%
3 | CC1=C(CCC(C)COC2OC(CO)C(O)C(O)C2O)OC2CC3C4CCC5CC(OC6OC(CO)C(O)C(O)C6OC6OC(CO)C(O)C(O)C6O)CCC5(C)C4CCC3(C)C12 (stereo not shown) [Compound 11, Timosaponin BIII] | 8.55 ± 0.25 | 4.24 ± 0.10 |  |  |  |  | 86% and 86.67 ± 0.37 % | no effect | attenuated | 120 ± 11.8 | significantly suppressed | significantly suppressed | significantly suppressed | significantly attenuated | significantly suppressed | antidepressive activity [6]: antidepressive activity; cytotoxicity against N9 microglial cells (in words) [8]: non-cytotoxic; % Cell Viability ([8]; mouse, 24 h, 50 µM): 74.93 ± 3.15 %
4 | C=CC(C=Cc1ccc(O)cc1)c1ccc(O)cc1 (stereo not drawn) [Compound 23, trans-Hinokiresinol] | 14.93 ± 0.41 | 5.18 ± 0.06 | > 50 | 83 | 108 ± 4.39 | 98.3 ± 11.6 | 83.73 ± 0.22 % | significantly prevented | not affected |  | significantly suppressed | significantly suppressed | significantly suppressed | significantly attenuated | significantly suppressed | IC50 ([2]; Mus musculus, N9, pretreated 1 h, LPS 100 ng/mL, 24 h, Griess reagent, read-out: IC50, inhibition of NO production): 39.1 µM; effect on neuronal injury [16]: protective effect; cytotoxicity against N9 microglial cells (in words) ([4]; MTT): non-cytotoxic
5 | CC(CCC1(O)OC2CC3C4CCC5CC(OC6OC(CO)C(OC7OC(C)C(O)C(O)C7O)C(O)C6OC6OC(C)C(O)C(O)C6O)C(O)CC5(C)C4CCC3(C)C2C1C)COC1OC(CO)C(O)C(O)C1O (stereo not shown) [Compound 8, Tuberoside G] | 35.05 ± 0.68 | 27.65 ± 0.74 |  |  |  |  |  |  |  | 113 ± 4.14 |  |  |  |  |  | inhibition at 25 µM ([2]; Mus musculus, read-out: % Inhibition of NO Production, 25 μM compound, LPS 100 ng/mL, 24 h): -10.8 ± 2.14%; inhibition at 50 µM ([2]; Mus musculus, read-out: % Inhibition of NO Production, 50 μM compound, LPS 100 ng/mL, 24 h): 13.2 ± 2.32%; viability at 24 h, 50 µM [10]: 99.3 ± 2.46%
